Activity calls are given as the source filed them.
Assays:
[1] = system: Proteasome; assay: Binding affinity to proteasome in azido-BODIPY-epoxomicin treated HEK293T cell lysates at 5 uM at 0 degC by SDS-PAGE-based fluorescence analysis; type: subcellular; conditions: Homo sapiens, HEK-293T
[2] = system: HeLa; assay: Binding affinity to proteasome in human HeLa cells assessed as fluorescence at 5 uM pretreated with azido-BODIPY-epoxomicin for 2 hrs followed by 4 hrs of incubation with compound measured post washing by SDS-PAGE-based Western blot analysis
[3] = system: Proteasome; assay: Binding affinity to proteasome in azido-BODIPY-epoxomicin treated HEK293T cell lysates at 50 to 100 uM after 1 hr by SDS-PAGE-based fluorescence analysis; type: subcellular; conditions: Homo sapiens, HEK-293T
[4] = system: Proteasome; assay: Binding affinity to proteasome in azido-BODIPY-epoxomicin treated HEK293T cell lysates at 1 to 100 uM after 1 hr by Western blot analysis with streptavidin-HRP; type: subcellular; conditions: Homo sapiens, HEK-293T
[5] = system: Proteasome; assay: Binding affinity to proteasome in azido-BODIPY-epoxomicin treated HEK293T cell lysates at 5 uM at 37 degC up to 4 hrs by SDS-PAGE-based fluorescence analysis; type: subcellular; conditions: Homo sapiens, HEK-293T
[6] = system: Proteasome; assay: Binding affinity to proteasome in azido-BODIPY-epoxomicin treated HEK293T cell lysates at 50 uM at 0 degC by SDS-PAGE-based fluorescence analysis; type: subcellular; conditions: Homo sapiens, HEK-293T
[7] = system: Proteasome; assay: Binding affinity to proteasome in azido-BODIPY-epoxomicin treated HEK293T cell lysate at 50 uM at 37 degC up to 4 hrs by SDS-PAGE-based fluorescence analysis; type: subcellular; conditions: Homo sapiens, HEK-293T
[8] = system: HeLa; assay: Binding affinity to proteasome in human HeLa cells assessed as fluorescence at 100 uM pretreated with azido-BODIPY-epoxomicin for 2 hrs followed by 4 hrs of incubation with compound measured post washing by SDS-PAGE-based Western blot analysis
[9] = system: Proteasome; assay: Binding affinity to proteasome in azido-BODIPY-epoxomicin treated HEK293T cell lysates at 5 uM at 37 degC after 2 hrs by SDS-PAGE-based fluorescence analysis; type: subcellular; conditions: Homo sapiens, HEK-293T
[10] = system: Proteasome; assay: Binding affinity to proteasome in azido-BODIPY-epoxomicin treated HEK293T cell lysates at 5 uM after 1 hr by SDS-PAGE-based fluorescence analysis; type: subcellular; conditions: Homo sapiens, HEK-293T
[11] = system: Proteasome; assay: Binding affinity to proteasome in azido-BODIPY-epoxomicin treated HEK293T cell lysates at 0.5 uM at 0 degC by SDS-PAGE-based fluorescence analysis; type: subcellular; conditions: Homo sapiens, HEK-293T
[12] = system: HeLa; assay: Binding affinity to proteasome in human HeLa cells assessed as fluorescence at 0.5 uM pretreated with azido-BODIPY-epoxomicin for 2 hrs followed by 4 hrs of incubation with compound measured post washing by SDS-PAGE-based Western blot analysis
[13] = system: Proteasome; assay: Binding affinity to proteasome in azido-BODIPY-epoxomicin treated HEK293T cell lysates at 0.5 uM at 37 degC after 30 mins by SDS-PAGE-based fluorescence analysis; type: subcellular; conditions: Homo sapiens, HEK-293T

Measured: Activity

O=C(CCCC[C@@H]1SC[C@@H]2NC(=O)N[C@@H]21)NCCOCCOCCNC(=O)C1(F)C#CCCCCC1 (stereo partly drawn)
active: [1] | [2] | [3] | [4] | [5]

COC(=O)c1ccc(C(=O)NCCOCCOCCNC(=O)CCCC[C@@H]2SC[C@@H]3NC(=O)N[C@@H]32)cc1P(c1ccccc1)c1ccccc1
active: [6] | [7] | [8]

O=C(CCCC[C@@H]1SC[C@@H]2NC(=O)N[C@@H]21)NCCOCCOCCOCCNC(=O)OC[C@@H]1[C@@H]2CCC#CCC[C@@H]21
active: [1] | [2] | [3] | [4] | [9]

O=C(CCCC[C@@H]1SC[C@@H]2NC(=O)N[C@@H]21)NCCOCCOCCOCCNC(=O)OC1Cc2ccccc2C#Cc2ccccc21 (stereo partly drawn)
active: [10] | [11] | [12] | [4] | [13]

From ChEMBL document CHEMBL1949534, “Two-step bioorthogonal activity-based proteasome profiling using copper-free click reagents: a comparative study” (Bioorg Med Chem, 2012)
